Assay results as given in paper PMC9686989, “Exploration of Molecular Structure, DFT Calculations, and Antioxidant Activity of a Hydrazone Derivative” (Antioxidants, 2022).

Legend:
[1] = ABTS antioxidant assay (radical scavenging); conditions: radical cation ABTS•+ in methanol, 60 min in the dark, absorbance at 745 nm, triplicate
Experimental: (§1) The antioxidant activity of compound 2 was measured using ABTS antioxidant assay and DPPH radical scavenging assay using ascorbic acid and quercetin as standard compounds. The antioxidant activity of compound 1 was not determined here, as it was isolated as a by-product in trace amounts. Furthermore, this compound is reported, and thus, it was believed unnecessary to pursue its antioxidant capacity.
Equal amounts of 7 mM ABTS (2,2′-azino-bis(3-ethylbenzothiazoline-6-sulphonic acid)) stock solution and 2.45 mM potassium persulfate stock solution were mixed and stored at 0 °C for 12 h in the dark to produce the radical cation ABTS^•+. The prepared radical cation ABTS^•+ solution was diluted with methanol so that the UV absorption value was below 1.000 at 745 nm. The compound 2 and reference standards, including ascorbic acid and quercetin, were dissolved in methanol to obtain 2000 µM stock solutions. Then, these solutions were diluted with methanol to 1000, 500, 250, 125, 62.5, 31.3, 15.6, 7.81, 3.91, 1.95, 0.977, 0.488, 0.244, 0.122, and 0.0610 µM solutions. Then, 0.9 mL of the ABTS^•+ solution and 0.1 mL of solutions of compound 2 or standard materials prepared above were mixed in a test tube and kept in the dark for 60 min. After 60 min incubation, the UV absorption at 745 nm was measured. All experiments were performed in triplicate. The radical scavenging rates were obtained from these UV absorption data, and the resulting IC50 values were calculated using Origin 8 (Northampton, MA, USA). Percentage (%) of ABTS radical scavenging = [(A0 − A1)/A0] × 100(1) where A0 was the absorbance of the control, and A1 was the absorbance of the treated sample.

[2] = DPPH radical scavenging assay; conditions: DPPH in methanol, 30 min in the dark, absorbance at 517 nm, triplicate
Experimental: as §1
The 100 µM DPPH stock solution was prepared in absolute methanol. The 2.0 mM stock solutions of compound 2 and the reference standards ascorbic acids and quercetin were also prepared in absolute methanol. Then, these solutions were diluted with methanol to 1000, 500, 250, 100, 50, 25, 12.5, 6.25, 3.13, 1.56, 0.781, 0.391, 0.195, 0.0977, 0.0488, 0.0244, and 0.0122 µM solutions. Afterwards, 0.7 mL of the DPPH solution and 0.7 mL of solutions of compound 2 or standard materials prepared above were mixed in a test tube and kept in the dark for 30 min. After 30 min incubation, the UV absorption at 517 nm was measured. All experiments were performed in triplicate. The radical scavenging rates were obtained from these UV absorption data, and the resulting IC50 values were calculated using Origin 8. Percentage (%) of DPPH radical scavenging = [(A0 − A1)/A0] × 100(2) where A0 was the absorbance of the control, and A1 was the absorbance of the treated sample.

A549 cells = assay: Cell cytotoxicity assay (MTT); type: cell-based
Experimental: The A549 cells ([…]) were used in the cytotoxicity assay (MTT (3-(4,5-dimethylthiazol-2-yl)-2,5-diphenyltetrazolium bromide) assay) of compound 2. The A549 cells were grown in an incubator at 37 °C and 5% CO2 using DMEM media containing 2 mM glutamine and 10% FBS. Cells were trypsinized for seeding at 70–90% of cell confluency. About 7000 A549 cells per well were seeded in 96-well plates and incubated for 24 h at 37 °C in the presence of 5% CO2. Then, the media was replaced with the media containing compound 2 at various concentrations, including 0.1, 10, 25, and 50 µM, and incubated for another 24 h. Dimethyl sulfoxide (DMSO) was used as a vehicle. […] After 24 h incubation, the media was replaced with 200 µL of fresh media containing MTT solution and incubated for four hours at 37 °C. The absorbance was recorded at 570 nm to evaluate the cell viability. Each experiment was executed three times. Origin software was used for the data analysis.

| SMILES | IC50 [1] [µM] | IC50 [2] [µM] | decrease in cell growth compared to the control (A549 cells; 24 h treatment, 50 µM, MTT, DMSO control) [%] | cytotoxicity (cell death) (A549 cells; 24 h treatment, 0.1–25 µM, MTT, DMSO control) | cell cytotoxicity (A549 cells; at 25 µM) | cytotoxicity (A549 cells; below 25 µM) |
| --- | --- | --- | --- | --- | --- | --- |
| O=C1O[C@H]([C@@H](O)CO)C(O)=C1O [Ascorbic acid, ascorbic acid] | 13.2 ± 0.45 | 28.7 ± 0.65 | – | – | – | – |
| O=c1c(O)c(-c2ccc(O)c(O)c2)oc2cc(O)cc(O)c12 [Quercetin, quercetin] | 3.57 ± 0.54 | 4.02 ± 0.058 | – | – | – | – |
| C/C(=N\N=C(/C)c1ccc(O)cc1O)c1ccc(O)cc1O [Compound 2, 4,4′-((1E,1′E)-hydrazine-1,2-diylidenebis(ethan-1-yl-1-ylidene))bis(benzene-1,3-diol)] | 4.3 ± 0.21 | 81.06 ± 0.72 | ~40 | did not show significant cell death | did not show any cell cytotoxicity | almost no cytotoxicity |
